Experimental data from patent US6713455B2, “6-O-carbamate-11,12-lacto-ketolide antimicrobials” (Ortho-McNeil Pharmaceutical, Inc., priority 2001, dated 2004).
In brackets after ≈: the same amount, converted by molar mass.

Assays:
Assay in all cases: MIC, microdilution broth method (NCCLS)
Assay type in all cases: cell-based
Conditions in all cases: 35° C., 16-20 hours
[1] = system: H. influenzae ATCC49247
Procedure: (§1) Minimal inhibitory concentration (MIC) has been an indicator of in vitro antibacterial activity widely used in the art. The in vitro antimicrobial activity of the compounds was determined by the microdilution broth method following the test method from the National Committee for Clinical Laboratory Standards (NCCLS). This method is described in the NCCLS Document M7-A4, Vol.17, No.2, “Methods for Dilution Antimicrobial Susceptibility Test for Bacteria that Grow Aerobically—Fourth Edition”, which is incorporated herein by reference.
(§2) In this method two-fold serial dilutions of drug in cation adjusted Mueller-Hinton broth are added to wells in microdilution trays. The test organisms are prepared by adjusting the turbidity of actively growing broth cultures so that the final concentration of test organism after it is added to the wells is approximately 5×10^4 CFU/well.
(§3) Following inoculation of the microdilution trays, the trays are incubated at 35° C. for 16-20 hours and then read. […] The amount of growth in the wells containing the test compound is compared with the amount of growth in the growth-control wells (no test compound) used in each tray. As set forth in Table 1, compounds of the present invention were tested against a variety of Gram positive and Gram negative pathogenic bacteria resulting in a range of activities depending on the organism tested.

[2] = system: E. coli OC2605
Procedure: as §1, §2, §3

[3] = system: S. aureus ATCC29213
Procedure: as §1, §2, §3

[4] = system: S. pneumoniae ATCC49619
Procedure: as §1, §2, §3

[5] = system: E. faecalis ATCC29212
Procedure: as §1, §2, §3

Row | SMILES | MIC (μg/mL) E [1] [µg/mL] | MIC (μg/mL) A [2] [µg/mL] | MIC (μg/mL) B [3] [µg/mL] | MIC (μg/mL) D [4] [µg/mL] | MIC (μg/mL) C [5] [µg/mL]
1 | CCC1OC(=O)C(C)C(=O)C(C)C(OC2OC(C)CC(N(C)C)C2O)C(C)(OC(=O)NCC=Cc2ccc(Br)cc2)CC(C)C(=O)C(C)C2CC(=O)OC12C (stereo not drawn) [Compound 22] | 4 (≈ 4.79 µM) | 16 (≈ 19.1 µM) | 1 (≈ 1.2 µM) | 0.06 (≈ 0.0718 µM) | 0.25 (≈ 0.299 µM)
2 | CCC1OC(=O)C(C)C(=O)C(C)C(OC2OC(C)CC(N(C)C)C2O)C(C)(OC(=O)N(CC=Cc2ccc(Br)cc2)CC=Cc2ccc(Br)cc2)CC(C)C(=O)C(C)C2CC(=O)OC12C (stereo not drawn) [Compound 23] | >16 | >16 | 8 (≈ 7.76 µM) | 2 (≈ 1.94 µM) | 2 (≈ 1.94 µM)
3 | CCC1OC(=O)C(C)C(=O)C(C)C(OC2OC(C)CC(N(C)C)C2O)C(C)(OC(=O)NCc2ccc(-c3ccccn3)cc2)CC(C)C(=O)C(C)C2CC(=O)OC12C (stereo not drawn) [Compound 26] | 8 (≈ 9.9 µM) | >16 | 1 (≈ 1.24 µM) | 0.06 (≈ 0.0743 µM) | 0.12 (≈ 0.149 µM)
4 | CCC1OC(=O)C(C)C(=O)C(C)C(OC2OC(C)CC(N(C)C)C2O)C(C)(OC(=O)NCC=Cc2ccc3ncccc3c2)CC(C)C(=O)C(C)C2CC(=O)OC12C (stereo not drawn) [Compound 27] | 1 (≈ 1.24 µM) | 16 (≈ 19.8 µM) | 0.5 (≈ 0.619 µM) | 0.03 (≈ 0.0371 µM) | 0.06 (≈ 0.0743 µM)
5 | CCC1OC(=O)C(C)C(=O)C(C)C(OC2OC(C)CC(N(C)C)C2O)C(C)(OC(=O)NCc2ccc3ccccc3n2)CC(C)C(=O)C(C)C2CC(=O)OC12C (stereo not drawn) [Compound 28] | 8 (≈ 10.2 µM) | >16 | 2 (≈ 2.56 µM) | 0.12 (≈ 0.153 µM) | 0.5 (≈ 0.639 µM)
6 | CCC1OC(=O)C(C)C(=O)C(C)C(OC2OC(C)CC(N(C)C)C2O)C(C)(OC(=O)NCC=Cc2ccc(-c3ccccn3)cc2)CC(C)C(=O)C(C)C2CC(=O)OC12C (stereo not drawn) [Compound 29] | 2 (≈ 2.4 µM) | >16 | 0.5 (≈ 0.6 µM) | 0.06 (≈ 0.0719 µM) | 0.25 (≈ 0.3 µM)
7 | CCC1OC(=O)C(C)C(=O)C(C)C(OC2OC(C)CC(N(C)C)C2O)C(C)(OC(=O)NCC=Cc2ccc3cccnc3c2)CC(C)C(=O)C(C)C2CC(=O)OC12C (stereo not drawn) [Compound 31] | >16 | 16 (≈ 19.8 µM) | 0.25 (≈ 0.309 µM) | 0.03 (≈ 0.0371 µM) | 0.06 (≈ 0.0743 µM)
8 | CCC1OC(=O)C(C)C(=O)C(C)C(OC2OC(C)CC(N(C)C)C2O)C(C)(OC(=O)NCC=Cc2ccc(-c3ncccn3)cc2F)CC(C)C(=O)C(C)C2CC(=O)OC12C (stereo not drawn) [Compound 32] | 8 (≈ 9.38 µM) | >16 | 0.5 (≈ 0.586 µM) | 0.06 (≈ 0.0703 µM) | 0.25 (≈ 0.293 µM)
9 | CCC1OC(=O)C(C)C(=O)C(C)C(OC2OC(C)CC(N(C)C)C2O)C(C)(OC(=O)NCC=Cc2ccccn2)CC(C)C(=O)C(C)C2CC(=O)OC12C (stereo not drawn) [Compound 33] | 8 (≈ 10.6 µM) | >16 | 2 (≈ 2.64 µM) | 0.12 (≈ 0.158 µM) | 0.5 (≈ 0.66 µM)
